Common to all, as to format: in vivo
Data set [1] is described as follows: Example 2 body weight loss in HepG2 xenograft mouse model. The conditions noted are these: Sorafenib 80 mg/kg oral, relative to tumor-associated weight loss of the model. How it is done:
(§1) HepG2 cells or HuH-7 cells (5×10^5 cells) dispersed in 50% Matrigel (Becton Dickinson) were subcutaneously implanted. When the tumor volume reached 250 mm^3, the mice were divided into groups and administration commenced.
(§2) The asterisks in the figures indicate that P<0.05, based on the Dunnett's test. […] The open circles indicate the change in body weight in the group given the vehicle. […] The open squares indicate the change in body weight in the group given only Sorafenib in a dose of 80 mg/kg. […]

The nature of data set [2]: Example 5 body weight loss in HepG2 xenograft mouse model. The note with it: Sorafenib 80 mg/kg oral. The source says: Sorafenib was synthesized according to Organic Process Research & Development (2002) 6, 777-781.
Th data is expressed by the time course of the body weight of the mice (mean±SD).

The test system of another data set is HuH-7 xenograft. As to the kind of experiment: Example 2 antitumor effect, HuH-7 xenograft mouse model (hGC33 and Sorafenib). The conditions noted are these: hGC33 5 mg/kg i.v. weekly x3 alone or Sorafenib 80 mg/kg oral 5 times per week x3 alone. How it is done:
as §1, §2

The structures appear in SMILES notation.

Turning to `CNC(=O)c1cc(Oc2ccc(NC(=O)Nc3ccc(Cl)c(C(F)(F)F)c3)cc2)ccn1` [Sorafenib, 4-[4-[[4-chloro-3-(trifluoromethyl)phenyl]carbamoylamino]phenoxy]-N-methylpyridine-2-carboxamide], the “weight loss with Sorafenib alone” value in data set [1] is “further enhanced”; in data set [2], “enhanced”. Further, in the data set with HuH-7 xenograft, the “tumor growth, single agent” value is “suppressed”.

The record behind these values is US20110104157A1, “LIVER CANCER DRUG” (Chugai Seiyaku Kabushiki Kaisha, priority 2008, published 2011).
